Measured values reported in patent publication US10457663B2, “Pyrazol-pyridine derivatives” (Hoffmann-La Roche Inc., priority 2016, dated 2019).

Tests used:
human EAAT3 = biological target: T1, human EAAT3 (Homo sapiens, UniProt P43005); assay: FLIPR Membrane Potential (FMP) assay; assay type: cell-based; conditions: HEK-293 cells stably expressing human EAAT3; L-glutamate as agonist at EC80; antagonist applied 15 min before; Kb by Cheng-Prusoff from IC50
T1 construct: expressed in transfected cells; host or cells: HEK-293
T1 sequence (P43005 1-524): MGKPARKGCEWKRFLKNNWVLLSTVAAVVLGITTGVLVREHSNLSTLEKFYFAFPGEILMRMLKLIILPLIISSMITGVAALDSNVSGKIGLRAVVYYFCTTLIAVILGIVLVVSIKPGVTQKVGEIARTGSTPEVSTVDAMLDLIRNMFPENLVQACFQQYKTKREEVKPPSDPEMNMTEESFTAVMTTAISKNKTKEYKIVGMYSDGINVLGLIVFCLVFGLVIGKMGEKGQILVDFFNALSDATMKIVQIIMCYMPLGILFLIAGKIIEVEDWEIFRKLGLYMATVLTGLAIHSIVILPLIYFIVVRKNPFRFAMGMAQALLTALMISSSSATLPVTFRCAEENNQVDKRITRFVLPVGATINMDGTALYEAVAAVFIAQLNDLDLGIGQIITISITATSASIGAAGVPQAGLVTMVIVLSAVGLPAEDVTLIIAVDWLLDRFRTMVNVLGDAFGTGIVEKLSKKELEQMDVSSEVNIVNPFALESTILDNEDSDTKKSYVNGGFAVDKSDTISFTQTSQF
Experimental: The FLIPR Membrane Potential (FMP) assay
HEK-293 cells stably expressing human EAAT3 were seeded at 55 000 cells/well in growth medium (DMEM glutamate free (Invitrogen 11960-044), 1% Pen Strep (10 ml/l GIBCO BRL N^o 15140-023), 10% FCS non dialysed heat inactivated, 5 mg/l puromycin) in poly-D-lysine treated 96-well black microtiter plates with clear-bottom. After 24 h, the growth medium was removed and 100 μl/well of Krebs buffer (140 mM NaCl, 4.7 mM KCl, 2.5 mM CaCl2), 1.2 mM MgCl2, 11 mM HEPES, 10 mM D-glucose, pH=7.4) added. The cells were then loaded by adding 100 μl/well FMP assay dye (FLIPR Membrane Potential assay reagent, Molecular Devices). The 96-well plates were then incubated at 37° C. for 1 h. The depolarization of the cells will cause more dye to enter in the cells, where it will bind to intracellular proteins and lipids and cause an increase in the fluorescence signal. Antagonist potency at human EAAT3 was determined by using L-glutamate as agonist at a concentration which gives 80% of the maximum response. The antagonists were applied 15 min before the application of the agonist L-glutamate. The assays were performed at room temperature and measurements done by using a Fluorometric Imaging Plate Reader (FLIPR, Molecular Devices) and filter #2. Responses were measured as peak increase in fluorescence minus basal (i.e. fluorescence without addition of L-glutamate). Kb was determined using the Cheng-Prusoff equation Kb=IC50/[1+(A/EC50)], where IC50 is the concentration of the antagonist producing 50% inhibition, A is the concentration of the agonist against which the IC50 is being determined (at EC80) and EC50 is the concentration of the agonist producing 50% […].

SMILES	melting point	Kb (human EAAT3)
CC(C)n1nccc1-c1cc(C(=O)NC(C)(C)C)cc(-c2ccccc2)n1 [Example 28, N-tert-Butyl-2-phenyl-6-(2-propan-2-yl-pyrazol-3-yl)-pyridine-4-carboxamide]	197 °C	310 nM
CC(C)(C)NC(=O)c1cc(-c2ccc(Cl)cc2)nc(-c2ccnn2CC2CC2)c1 [Example 40, N-tert-Butyl-2-(4-chlorophenyl)-6-[2-(cyclopropyl-methyl)-pyrazol-3-yl]-pyridine-4-carboxamide]	218 °C	490 nM
CCn1nccc1-c1cc(C(=O)NC(C)(C)C)cc(-c2ccc(C(F)(F)F)cc2)n1 [Example 41, N-tert-Butyl-2-(2-ethyl-pyrazol-3-yl)-6-[4-(trifluoromethyl)-phenyl]-pyridine-4-carboxamide]	186 °C	750 nM
CC(C)(C)NC(=O)c1cc(-c2ccc(C(F)(F)F)cc2)nc(-c2ccnn2CC2CC2)c1 [Example 42, N-tert-Butyl-2-[2-(cyclopropylmethyl)-pyrazol-3-yl]-6-[4-(trifluoromethyl)-phenyl]-pyridine-4-carboxamide]	203 °C	380 nM
CC(C)n1nccc1-c1cc(C(=O)NC(C)(C)C(F)(F)F)cc(-c2ccc(F)cc2)n1 [Example 44, 2-(4-Fluorophenyl)-6-(2-propan-2-yl-pyrazol-3-yl)-N-(1,1,1-trifluoro-2-methyl-propan-2-yl)-pyridine-4-carboxamide]	186 °C	560 nM
CC(C)n1nccc1-c1cc(C(=O)NC(C)(C)C2CC2)cc(-c2ccc(F)cc2)n1 [Example 46, N-(2-Cyclopropyl-propan-2-yl)-2-(4-fluorophenyl)-6-(2-propan-2-yl-pyrazol-3-yl)-pyridine-4-carboxamide]	173 °C	550 nM
CC(C)n1nccc1-c1cc(C(=O)NC(C)(C)CO)cc(-c2ccc(F)cc2)n1 [Example 47, 2-(4-Fluorophenyl)-N-(1-hydroxy-2-methyl-propan-2-yl)-6-(2-propan-2-yl-pyrazol-3-yl)-pyridine-4-carboxamide]	180 °C	310 nM
CC(C)n1nccc1-c1cc(C(=O)NC(C)(C)C2CC2)cc(-c2ccc(Cl)cc2)n1 [Example 49, 2-(4-Chlorophenyl)-N-(2-cyclopropyl-propan-2-yl)-6-(2-propan-2-yl-pyrazol-3-yl)-pyridine-4-carboxamide]	164 °C	3100 nM
CC(C)n1nccc1-c1cc(C(=O)NC(C)(C)C(F)(F)F)cc(-c2ccc(Cl)cc2)n1 [Example 50, 2-(4-Chlorophenyl)-6-(2-propan-2-yl-pyrazol-3-yl)-N-(1,1,1-trifluoro-2-methylpropan-2-yl)-pyridine-4-carboxamide]	177 °C	1430 nM
CC(C)n1nccc1-c1cc(C(=O)NC(C)(C)CO)cc(-c2ccc(Cl)cc2)n1 [Example 51, 2-(4-Chlorophenyl)-N-(1-hydroxy-2-methylpropan-2-yl)-6-(2-propan-2-yl-pyrazol-3-yl)-pyridine-4-carboxamide]	165 °C	340 nM
CC(C)n1nccc1-c1cc(C(=O)NC(C)(C)C#N)cc(-c2ccc(Cl)cc2)n1 [Example 52, 2-(4-Chlorophenyl)-N-(2-cyanopropan-2-yl)-6-(2-propan-2-yl-pyrazol-3-yl)-pyridine-4-carboxamide]	206 °C	440 nM

The remaining lines, values ahead:

melting point	Kb (human EAAT3)	SMILES
178 °C	88 nM	CC(C)(C)n1nccc1-c1cc(C(=O)NC(C)(C)C(F)(F)F)cc(-c2ccc(F)cc2)n1 [Example 13, 2-(2-tert-Butyl-pyrazol-3-yl)-6-(4-fluorophenyl)-N-(1,1,1-trifluoro-2-methyl-propan-2-yl)-pyridine-4-carboxamide]
213 °C	71 nM	CC(C)(C#N)NC(=O)c1cc(-c2ccc(F)cc2)nc(-c2ccnn2C(C)(C)C)c1 [Example 14, 2-(2-tert-Butylpyrazol-3-yl)-N-(2-cyano-propan-2-yl)-6-(4-fluoro-phenyl)-pyridine-4-carboxamide]
169 °C	135 nM	CC(C)(NC(=O)c1cc(-c2ccc(F)cc2)nc(-c2ccnn2C(C)(C)C)c1)C1CC1 [Example 15, 2-(2-tert-Butyl-pyrazol-3-yl)-N-(2-cyclopropyl-propan-2-yl)-6-(4-fluorophenyl)-pyridine-4-carboxamide]
142 °C	80 nM	CC(C)(CO)NC(=O)c1cc(-c2ccc(F)cc2)nc(-c2ccnn2C(C)(C)C)c1 [Example 16, 2-(2-tert-Butyl-pyrazol-3-yl)-6-(4-fluorophenyl)-N-(1-hydroxy-2-methyl-propan-2-yl)-pyridine-4-carboxamide]
216 °C	50 nM	CC(C)(C)NC(=O)c1cc(-c2ccc(F)c(F)c2)nc(-c2ccnn2C(C)(C)C)c1 [Example 19, N-tert-Butyl-2-(2-tert-butyl-pyrazol-3-yl)-6-(3,4-difluoro-phenyl)-pyridine-4-carboxamide]
202 °C	100 nM	CC(C)c1ccc(-c2cc(C(=O)NC(C)(C)C)cc(-c3ccnn3C(C)(C)C)n2)cc1 [Example 20, N-tert-Butyl-2-(2-tert-butyl-pyrazol-3-yl)-6-(4-propan-2-yl-phenyl)-pyridine-4-carboxamide]
182 °C	54 nM	Cc1ccc(-c2cc(C(=O)NC(C)(C)C)cc(-c3ccnn3C(C)(C)C)n2)cc1 [Example 22, N-tert-Butyl-2-(2-tert-butyl-pyrazol-3-yl)-6-(4-methyl-phenyl)-pyridine-4-carboxamide]
208 °C	110 nM	CC(C)(C)NC(=O)c1cc(-c2ccc(Cl)c(F)c2)nc(-c2ccnn2C(C)(C)C)c1 [Example 24, N-tert-Butyl-2-(2-tert-butyl-pyrazol-3-yl)-6-(4-chloro-3-fluoro-phenyl)-pyridine-4-carboxamide]
207 °C	89 nM	Cc1ccc(-c2cc(C(=O)NC(C)(C)C)cc(-c3ccnn3C(C)(C)C)n2)cc1F [Example 26, N-tert-Butyl-2-(2-tert-butyl-pyrazol-3-yl)-6-(3-fluoro-4-methyl-phenyl)-pyridine-4-carboxamide]
209 °C	94 nM	CC(C)(C)NC(=O)c1cc(-c2ccccc2)nc(-c2ccnn2C(C)(C)C)c1 [Example 27, N-tert-Butyl-2-(2-tert-butyl-pyrazol-3-yl)-6-phenyl-pyridine-4-carboxamide]
160 °C	400 nM	Cc1cc(-c2cc(C(=O)NC(C)(C)C)cc(-c3ccnn3C(C)C)n2)ccc1F [Example 37, N-tert-Butyl-2-(4-fluoro-3-methyl-phenyl)-6-(2-propan-2-yl-pyrazol-3-yl)-pyridine-4-carboxamide]
179 °C	510 nM	CCn1nccc1-c1cc(C(=O)NC(C)(C)C)cc(-c2ccc(Cl)cc2)n1 [Example 39, N-tert-Butyl-2-(4-chlorophenyl)-6-(2-ethyl-pyrazol-3-yl)-pyridine-4-carboxamide]
175 °C	240 nM	CC(C)(C)NC(=O)c1cc(-c2ccc(F)cc2)nc(-c2ccnn2C2CC2)c1 [Example 48, N-tert-Butyl-2-(2-cyclopropyl-pyrazol-3-yl)-6-(4-fluorophenyl)-pyridine-4-carboxamide]
161 °C	860 nM	CC(C)(NC(=O)c1cc(-c2ccc(Cl)cc2)nc(-c2ccnn2C(C)(C)C)c1)C1CC1 [Example 53, 2-(2-tert-Butyl-pyrazol-3-yl)-6-(4-chlorophenyl)-N-(2-cyclopropyl-propan-2-yl)-pyridine-4-carboxamide]
206 °C	440 nM	CC(C)(C)n1nccc1-c1cc(C(=O)NC(C)(C)C(F)(F)F)cc(-c2ccc(Cl)cc2)n1 [Example 54, 2-(2-tert-Butyl-pyrazol-3-yl)-6-(4-chlorophenyl)-N-(1,1,1-trifluoro-2-methyl-propan-2-yl)-pyridine-4-carboxamide]
